Our source for the IC50 values is BindingDB's records for doi:10.1016/0968-0896(96)00075-2 (Sapienza University of Rome, 1996).

SMILES strings stand for the structures. pIC50: −log10 of the molar value.

By pIC50 is commonly meant the IC50 on a negative log10 scale, so that one unit is a factor of ten. A high value points to a small IC50.

The experiment deals with T1, Gag-Pol polyprotein [588-1027]/[588-1147] (Human immunodeficiency virus 1, UniProt P04585).
T1 construct: 588-1027; 588-1147
Briefly: HIV-1 RT Assay. Conditions: pH 7.8; 37 °C.

With `O=C1Nc2ccccc2S(=O)(=O)n2cccc21` [2-thia-3,9-diazatricyclo[8.4.0.0^{3,7}]tetradeca-1(10),4,6,11,13-pentaene-2,2,8-trione], the pIC50 was 5.40. Regarding `O=C1Nc2ccccc2Sn2cccc21` [5H-Pyrrolo [1,2-b] [1,2,5] benzothiadiazepin-11 (10H) -one], the negative logarithm of the IC50 (pIC50) is under 4.00. `Cn1c2ccccc2n2c(c3cccn31)=C(O)N(CCN1CCOCC1)CC2=O` [7-methyl-17-[2-(morpholin-4-yl)ethyl]-6,7,14,17-tetraazatetracyclo[12.4.0.0^{2,6}.0^{8,13}]octadeca-2,4,8(13),9,11-pentaene-15,18-dione] showed a pIC50 of 5.20. Consider `Cn1c2ccccc2n2c(c3cccn31)=C(O)N(CCN1CCCCC1)CC2=O` [7-methyl-17-[2-(piperidin-1-yl)ethyl]-6,7,14,17-tetraazatetracyclo[12.4.0.0^{2,6}.0^{8,13}]octadeca-2,4,8(13),9,11-pentaene-15,18-dione], for which the pIC50 is under 4.00. `C=CCN1C(=O)c2cccn2S(=O)(=O)c2ccccc21` [9-(prop-2-en-1-yl)-2-thia-3,9-diazatricyclo[8.4.0.0^{3,7}]tetradeca-1(10),4,6,11,13-pentaene-2,2,8-trione] had a pIC50 of 5.02. The result for `CC(C)N1C(=O)c2cccn2S(=O)(=O)c2ccccc21` [9-(propan-2-yl)-2-thia-3,9-diazatricyclo[8.4.0.0^{3,7}]tetradeca-1(10),4,6,11,13-pentaene-2,2,8-trione] reads 5.20; that for `C/C=C/CN1C(=O)c2cccn2S(=O)(=O)c2ccccc21` [9-[(2E)-but-2-en-1-yl]-2-thia-3,9-diazatricyclo[8.4.0.0^{3,7}]tetradeca-1(10),4,6,11,13-pentaene-2,2,8-trione], 4.68. The compound `C/C=C\CN1C(=O)c2cccn2S(=O)(=O)c2cc(Cl)ccc21` [9-[(2Z)-but-2-en-1-yl]-13-chloro-2-thia-3,9-diazatricyclo[8.4.0.0^{3,7}]tetradeca-1(10),4,6,11,13-pentaene-2,2,8-trione] had a pIC50 of 5.51. Take `CCN1C(=O)c2cccn2S(=O)(=O)c2ccccc21` [9-ethyl-2-thia-3,9-diazatricyclo[8.4.0.0^{3,7}]tetradeca-1(10),4,6,11,13-pentaene-2,2,8-trione]: the pIC50 was 5.00. Turning to `CCCN1C(=O)c2cccn2S(=O)(=O)c2ccccc21` [9-propyl-2-thia-3,9-diazatricyclo[8.4.0.0^{3,7}]tetradeca-1(10),4,6,11,13-pentaene-2,2,8-trione], the pIC50 was 4.62.

On to `CN1C(=O)c2cccn2S(=O)(=O)c2ccccc21` [10-methyi-5H-pyrrolo1,2-b] [1,2,5] benzothiadiazepin-11(10H)-one-5,5-dioxide], for which the negative-log IC50 (pIC50) is 4.96. As for `O=C1Nc2ccc(Cl)cc2S(=O)(=O)n2cccc21` [13-chloro-2-thia-3,9-diazatricyclo[8.4.0.0^{3,7}]tetradeca-1(10),4,6,11,13-pentaene-2,2,8-trione], the figure is 6.15; as for `C=CCN1C(=O)c2cccn2S(=O)(=O)c2cc(Cl)ccc21` [13-chloro-9-(prop-2-en-1-yl)-2-thia-3,9-diazatricyclo[8.4.0.0^{3,7}]tetradeca-1(10),4,6,11,13-pentaene-2,2,8-trione], 5.54; as for `CCN1C(=O)c2cccn2S(=O)(=O)c2cc(Cl)ccc21` [13-chloro-9-ethyl-2-thia-3,9-diazatricyclo[8.4.0.0^{3,7}]tetradeca-1(10),4,6,11,13-pentaene-2,2,8-trione], 5.57. For `CN1C(=O)c2cccn2S(=O)(=O)c2cc(Cl)ccc21` [13-chloro-9-methyl-2-thia-3,9-diazatricyclo[8.4.0.0^{3,7}]tetradeca-1(10),4,6,11,13-pentaene-2,2,8-trione], the negative logarithm of the IC50 (pIC50) is 6.30. Turning to `CN(C)CCCN1CC(=O)n2c(c3cccn3n(C)c3ccccc32)=C1O` [17-[3-(dimethylamino)propyl]-7-methyl-6,7,14,17-tetraazatetracyclo[12.4.0.0^{2,6}.0^{8,13}]octadeca-2,4,8(13),9,11-pentaene-15,18-dione], the pIC50 was 4.62. Take `CCOC(=O)CN1C(=O)c2cccn2S(=O)(=O)c2ccccc21` [ethyl 2-(2,2,8-trioxo-2-thia-3,9-diazatricyclo[8.4.0.0^{3,7}]tetradeca-1(10),4,6,11,13-pentaen-9-yl)acetate]: the pIC50 is 4.51.
